The record followed here is PMC5218480 (PLoS ONE, 2017).

This assay concerns MV-4-11 cells. As to the kind of experiment: Gene expression microarray analysis (Affymetrix PrimeView) and GSEA. The format is cell-based, human. More on the design: RFU PODN (11730768_x_at) / Fold change /veh PODN (11730768_x_at) / RFU LINC00158 (11744669_a_at) / Fold change /veh LINC00158 (11744669_a_at) / RFU DUSP10 (11751237_a_at) / Fold change /veh DUSP10 (11751237_a_at) / RFU ID3 (11757404_x_at) / Fold change /veh ID3 (11757404_x_at) / RFU PLEKHG5 (11737974_s_at) / Fold change /veh PLEKHG5 (11737974_s_at) / RFU LRRC4B (11730491_at) / Fold change /veh LRRC4B (11730491_at) / RFU GIMAP4 (11747438_a_at) / Fold change /veh GIMAP4 (11747438_a_at) / RFU KRT8 (11758183_x_at) / Fold change /veh KRT8 (11758183_x_at) / RFU CNN1 (11734310_a_at) / Fold change /veh CNN1 (11734310_a_at) / RFU VPS37D (11726825_at) / Fold change /veh VPS37D (11726825_at) / RFU C10orf10 (11716522_x_at) / Fold change /veh C10orf10 (11716522_x_at) / RFU KIR2DL2 /// KIR2DL4 /// KIR2DL5A /// KIR2DL5B /// KIR2DS1 /// KIR2DS2 /// KIR2DS3 /// KIR2DS4 /// KIR3DL3 /// KIR3DL3 /// KIR3DS1 (11738374_at) / Fold change /veh KIR2DL2 /// KIR2DL4 /// KIR2DL5A /// KIR2DL5B /// KIR2DS1 /// KIR2DS2 /// KIR2DS3 /// KIR2DS4 /// KIR3DL3 /// KIR3DL3 /// KIR3DS1 (11738374_at) / RFU C1QL1 (11718748_at) / Fold change /veh C1QL1 (11718748_at) / RFU TMPRSS4 (11747572_a_at) / Fold change /veh TMPRSS4 (11747572_a_at) / RFU HAMP (11756126_x_at) / Fold change /veh HAMP (11756126_x_at) / RFU RNFT2 (11725882_a_at) / Fold change /veh RNFT2 (11725882_a_at) / RFU NR4A2 (11747474_a_at) / Fold change /veh NR4A2 (11747474_a_at) / RFU ABCC12 (11746883_a_at) / Fold change /veh ABCC12 (11746883_a_at) / RFU TMEM136 (11760407_x_at) / Fold change /veh TMEM136 (11760407_x_at) / RFU CLDN22 /// WWC2 (11732394_at) / Fold change /veh CLDN22 /// WWC2 (11732394_at) / RFU HLA-DPB1 (11760878_x_at) / Fold change /veh HLA-DPB1 (11760878_x_at) / RFU SPINT1 (11716480_a_at) / Fold change /veh SPINT1 (11716480_a_at) / RFU GAP43 (11754022_s_at) / Fold change /veh GAP43 (11754022_s_at) / RFU A4GNT (11735810_at) / Fold change /veh A4GNT (11735810_at) / RFU PRB3 (11715151_x_at) / Fold change /veh PRB3 (11715151_x_at) / RFU TUBB4B (11761932_at) / Fold change /veh TUBB4B (11761932_at) / RFU CAPN14 (11732068_a_at) / Fold change /veh CAPN14 (11732068_a_at) / RFU TMCC2 (11721928_a_at) / Fold change /veh TMCC2 (11721928_a_at) / RFU IRGQ (11745062_a_at) / Fold change /veh IRGQ (11745062_a_at) / RFU FAM174B (11720279_a_at) / Fold change /veh FAM174B (11720279_a_at) / RFU TMPRSS4 (11748680_a_at) / Fold change /veh TMPRSS4 (11748680_a_at) / RFU FAM212B (11763350_a_at) / Fold change /veh FAM212B (11763350_a_at) / RFU PLEKHG5 (11743358_a_at) / Fold change /veh PLEKHG5 (11743358_a_at) / RFU ZSCAN30 (11745921_a_at) / Fold change /veh ZSCAN30 (11745921_a_at) / RFU CMKLR1 (11741424_a_at) / Fold change /veh CMKLR1 (11741424_a_at) / RFU LOC101060620 /// MAPK8IP1 (11723275_at) / Fold change /veh LOC101060620 /// MAPK8IP1 (11723275_at) / RFU SPTSSB (11747773_x_at) / Fold change /veh SPTSSB (11747773_x_at) / RFU PRSS12 (11739890_at) / Fold change /veh PRSS12 (11739890_at) / RFU BIN1 (11741810_x_at) / Fold change /veh BIN1 (11741810_x_at) / RFU WNT11 (11732464_a_at) / Fold change /veh WNT11 (11732464_a_at) / RFU C10orf10 (11716521_a_at) / Fold change /veh C10orf10 (11716521_a_at) / RFU C5orf56 (11738089_at) / Fold change /veh C5orf56 (11738089_at) / RFU CYB561 (11721691_x_at) / Fold change /veh CYB561 (11721691_x_at) / RFU ANKRD19P (11752326_a_at) / Fold change /veh ANKRD19P (11752326_a_at) / RFU OR2T12 /// OR2T33 /// OR2T8 (11738714_s_at) / Fold change /veh OR2T12 /// OR2T33 /// OR2T8 (11738714_s_at) / RFU VCAN (11748164_a_at) / Fold change /veh VCAN (11748164_a_at) / RFU JSRP1 (11732532_at) / Fold change /veh JSRP1 (11732532_at) / RFU KRTAP10-11 (11738290_x_at) / Fold change /veh KRTAP10-11 (11738290_x_at) / RFU MYO3A (11730013_a_at) / Fold change /veh MYO3A (11730013_a_at) / RFU EBF3 (11725865_a_at) / Fold change /veh EBF3 (11725865_a_at) / RFU CAMK2N1 (11719241_x_at) / Fold change /veh CAMK2N1 (11719241_x_at) / RFU C5orf56 (11738088_a_at) / Fold change /veh C5orf56 (11738088_a_at) / RFU OLFML3 (11715873_a_at) / Fold change /veh OLFML3 (11715873_a_at) / RFU LOC100653217 /// NTM (11731650_a_at) / Fold change /veh LOC100653217 /// NTM (11731650_a_at) / RFU MAPK11 (11762145_a_at) / Fold change /veh MAPK11 (11762145_a_at) / RFU FIZ1 (11724087_x_at) / Fold change /veh FIZ1 (11724087_x_at) / RFU OASL (11726364_x_at) / Fold change /veh OASL (11726364_x_at) / RFU SOX15 (11748057_x_at) / Fold change /veh SOX15 (11748057_x_at) / RFU CD79A (11719716_a_at) / Fold change /veh CD79A (11719716_a_at) / RFU HIST1H1D (11736915_at) / Fold change /veh HIST1H1D (11736915_at) / RFU CASKIN2 (11723855_a_at) / Fold change /veh CASKIN2 (11723855_a_at) / RFU LOC730098 (11760151_x_at) / Fold change /veh LOC730098 (11760151_x_at) / RFU OR4N2 (11742367_at) / Fold change /veh OR4N2 (11742367_at) / RFU PRRT2 (11749266_a_at) / Fold change /veh PRRT2 (11749266_a_at) / RFU SNX32 (11753110_a_at) / Fold change /veh SNX32 (11753110_a_at) / RFU CDHR5 (11726645_a_at) / Fold change /veh CDHR5 (11726645_a_at) / RFU RCAN1 (11760418_a_at) / Fold change /veh RCAN1 (11760418_a_at) / RFU FAM167A (11723789_a_at) / Fold change /veh FAM167A (11723789_a_at) / RFU FAM26E (11764081_at) / Fold change /veh FAM26E (11764081_at) / RFU ISYNA1 (11749810_s_at) / Fold change /veh ISYNA1 (11749810_s_at) / RFU ACY1 (11761880_at) / Fold change /veh ACY1 (11761880_at) / RFU 11764098_at / Fold change /veh 11764098_at / RFU SAMD14 (11745864_x_at) / Fold change /veh SAMD14 (11745864_x_at) / RFU NPB (11741838_a_at) / Fold change /veh NPB (11741838_a_at) / RFU TMPRSS6 (11731388_a_at) / Fold change /veh TMPRSS6 (11731388_a_at) / RFU KRTAP10-2 (11738614_at) / Fold change /veh KRTAP10-2 (11738614_at) / RFU ARHGAP8 /// PRR5-ARHGAP8 (11727945_x_at) / Fold change /veh ARHGAP8 /// PRR5-ARHGAP8 (11727945_x_at) / RFU KRTAP5-7 /// NADSYN1 (11734609_at) / Fold change /veh KRTAP5-7 /// NADSYN1 (11734609_at) / RFU RASL12 (11751679_a_at) / Fold change /veh RASL12 (11751679_a_at) / RFU CDKN2B (11736163_a_at) / Fold change /veh CDKN2B (11736163_a_at) / RFU PRF1 (11729649_at) / Fold change /veh PRF1 (11729649_at) / RFU, ZNF638 /// ZNF638-IT1 / Fold change vs veh, ZNF638 /// ZNF638-IT1 / RFU, PANK3 / Fold change vs veh, PANK3 / RFU, SH3YL1 / Fold change vs veh, SH3YL1 / RFU, ZEB2 / Fold change vs veh, ZEB2 / RFU, NRIP1 / Fold change vs veh, NRIP1 / RFU, PTTG1IP / Fold change vs veh, PTTG1IP / RFU, CAPN2 / Fold change vs veh, CAPN2 / RFU, MED14 / Fold change vs veh, MED14 / RFU, SNORA58 / Fold change vs veh, SNORA58 / RFU, C1orf63 / Fold change vs veh, C1orf63 / RFU, LRRFIP1 / Fold change vs veh, LRRFIP1 / RFU, NDUFAF7 / Fold change vs veh, NDUFAF7 / RFU, SLC12A2 / Fold change vs veh, SLC12A2 / RFU, IBTK / Fold change vs veh, IBTK / RFU, ESF1 / Fold change vs veh, ESF1 / Fold change vs veh, TMEM50B / RFU, TAOK1 / Fold change vs veh, TAOK1 / RFU, ACBD3 / Fold change vs veh, ACBD3 / RFU, TMA16 / Fold change vs veh, TMA16 / RFU, RWDD3 / Fold change vs veh, RWDD3 / RFU, BCAT1 / Fold change vs veh, BCAT1 / RFU, EDEM3 / Fold change vs veh, EDEM3 / RFU, TMEM33 / Fold change vs veh, TMEM33 / RFU, WDR75 / Fold change vs veh, WDR75 / RFU, AHCTF1 / Fold change vs veh, AHCTF1 / RFU, TFRC / Fold change vs veh, TFRC / RFU, ZDHHC17 / Fold change vs veh, ZDHHC17 / RFU, NOM1 / Fold change vs veh, NOM1 / RFU, ARL8B / Fold change vs veh, ARL8B / RFU, ZBTB11 / Fold change vs veh, ZBTB11 / RFU, TAMM41 / Fold change vs veh, TAMM41 / RFU, KIAA1704 /// LOC100996395 / Fold change vs veh, KIAA1704 /// LOC100996395 / RFU, ING1 / Fold change vs veh, ING1 / RFU, TRMT61B / Fold change vs veh, TRMT61B / RFU, FUBP3 / Fold change vs veh, FUBP3 / RFU, TP53 / Fold change vs veh, TP53 / RFU, TNKS2 / Fold change vs veh, TNKS2 / RFU, ZFP14 / Fold change vs veh, ZFP14 / RFU, ACTR2 / Fold change vs veh, ACTR2 / RFU, PPP3R1 / Fold change vs veh, PPP3R1 / RFU, PIK3R1 / Fold change vs veh, PIK3R1 / RFU, HNRNPA1 / Fold change vs veh, HNRNPA1 / RFU, RNF170 / Fold change vs veh, RNF170 / RFU, ZNF28 / Fold change vs veh, ZNF28 / RFU, RNGTT / Fold change vs veh, RNGTT / RFU, OGT / Fold change vs veh, OGT / RFU, BRD1 / Fold change vs veh, BRD1 / RFU, MARS / Fold change vs veh, MARS / RFU, ZNF655 / Fold change vs veh, ZNF655 / RFU, FAHD1 / Fold change vs veh, FAHD1 / RFU, BDP1 / Fold change vs veh, BDP1 / RFU, LRRCC1 / Fold change vs veh, LRRCC1 / RFU, ARID1A / Fold change vs veh, ARID1A / RFU, ZNF146 / Fold change vs veh, ZNF146 / RFU, ZNF330 / Fold change vs veh, ZNF330 / RFU, GPN3 / Fold change vs veh, GPN3 / RFU, C9orf123 / Fold change vs veh, C9orf123 / RFU, N4BP2L2 / Fold change vs veh, N4BP2L2 / RFU, ARFIP1 / Fold change vs veh, ARFIP1 / RFU, FAM179B / Fold change vs veh, FAM179B / RFU, BCL10 / Fold change vs veh, BCL10 / RFU, UHRF1BP1L / Fold change vs veh, UHRF1BP1L / RFU, BET1 / Fold change vs veh, BET1 / RFU, CNOT2 / Fold change vs veh, CNOT2 / RFU, ZNF268 / Fold change vs veh, ZNF268 / Fold change vs veh, ZNF507 / RFU, DGCR2 / Fold change vs veh, DGCR2 / RFU, WDSUB1 / Fold change vs veh, WDSUB1 / Fold change vs veh, HSP90B1 /// MIR3652 / RFU, ADSS / Fold change vs veh, ADSS / RFU, GK / Fold change vs veh, GK / RFU, ZNF148 / Fold change vs veh, ZNF148 / RFU, TAF9 / Fold change vs veh, TAF9 / RFU, SLC1A5 / Fold change vs veh, SLC1A5 / RFU, SLMO2 / Fold change vs veh, SLMO2 / RFU, ABCC4 / Fold change vs veh, ABCC4 / RFU, LOC101060439 /// RAP1B / Fold change vs veh, LOC101060439 /// RAP1B / RFU, RFX7 / Fold change vs veh, RFX7 / RFU, GTPBP10 / Fold change vs veh, GTPBP10 / RFU, CNEP1R1 / Fold change vs veh, CNEP1R1 / RFU, BIVM-ERCC5 /// ERCC5 / Fold change vs veh, BIVM-ERCC5 /// ERCC5 / RFU, ILF3 / Fold change vs veh, ILF3 / RFU 11762660_at / Fold change /veh 11762660_at / RFU VCAN (11757783_s_at) / Fold change /veh VCAN (11757783_s_at) / RFU DDX43 (11728927_at) / Fold change /veh DDX43 (11728927_at) / RFU KRT8 (11758188_x_at) / Fold change /veh KRT8 (11758188_x_at) / RFU NKD1 (11759106_at) / Fold change /veh NKD1 (11759106_at) / RFU SRD5A1 (11742802_a_at) / Fold change /veh SRD5A1 (11742802_a_at) / RFU TPSAB1 /// TPSB2 (11721975_s_at) / Fold change /veh TPSAB1 /// TPSB2 (11721975_s_at) / RFU GSTM3 (11746129_a_at) / Fold change /veh GSTM3 (11746129_a_at) / RFU IL23R (11737362_x_at) / Fold change /veh IL23R (11737362_x_at) / RFU TMEM51 (11727254_a_at) / Fold change /veh TMEM51 (11727254_a_at) / RFU PIWIL2 (11732686_x_at) / Fold change /veh PIWIL2 (11732686_x_at) / RFU ORM1 (11744905_x_at) / Fold change /veh ORM1 (11744905_x_at) / RFU CCDC152 (11743942_at) / Fold change /veh CCDC152 (11743942_at) / RFU ECM1 (11717891_a_at) / Fold change /veh ECM1 (11717891_a_at) / RFU IL23R (11748794_a_at) / Fold change /veh IL23R (11748794_a_at) / RFU TNFAIP8L3 (11732012_x_at) / Fold change /veh TNFAIP8L3 (11732012_x_at) / RFU MBOAT4 (11741988_at) / Fold change /veh MBOAT4 (11741988_at) / RFU 11764193_at / Fold change /veh 11764193_at / RFU TMEM53 (11763286_at) / Fold change /veh TMEM53 (11763286_at) / RFU MAGEB2 (11727129_at) / Fold change /veh MAGEB2 (11727129_at) / RFU TMEM200A (11744735_a_at) / Fold change /veh TMEM200A (11744735_a_at) / RFU CCDC152 (11751479_a_at) / Fold change /veh CCDC152 (11751479_a_at) / RFU FAM211A (11726209_a_at) / Fold change /veh FAM211A (11726209_a_at) / RFU RGS16 (11746705_a_at) / Fold change /veh RGS16 (11746705_a_at) / RFU VCAN (11755009_s_at) / Fold change /veh VCAN (11755009_s_at) / RFU RHOB (11743442_s_at) / Fold change /veh RHOB (11743442_s_at) / RFU RGS16 (11720943_a_at) / Fold change /veh RGS16 (11720943_a_at) / RFU RGS16 (11720944_at) / Fold change /veh RGS16 (11720944_at) / RFU, VPS4B / Fold change vs veh, VPS4B / RFU, CREB1 / Fold change vs veh, CREB1 / RFU, DNAJC13 / Fold change vs veh, DNAJC13 / RFU, GNAQ / Fold change vs veh, GNAQ / RFU, CDK5R1 / Fold change vs veh, CDK5R1 / RFU, ZRANB3 / Fold change vs veh, ZRANB3 / RFU, CUL4A / Fold change vs veh, CUL4A / RFU, CCNY / Fold change vs veh, CCNY / RFU, UFL1 / Fold change vs veh, UFL1 / RFU, COG3 / Fold change vs veh, COG3 / RFU, DIAPH2 / Fold change vs veh, DIAPH2 / RFU, SKA2 / Fold change vs veh, SKA2 / RFU, AFF3 / Fold change vs veh, AFF3 / RFU, LMF1 / Fold change vs veh, LMF1 / RFU, IPO11 / Fold change vs veh, IPO11 / RFU, DFFB / Fold change vs veh, DFFB / RFU, FOXP1 / Fold change vs veh, FOXP1 / RFU, CARD8 / Fold change vs veh, CARD8 / RFU, STRN3 / Fold change vs veh, STRN3 / RFU, ADK / Fold change vs veh, ADK / RFU, RASSF2 / Fold change vs veh, RASSF2 / RFU, WIPF1 / Fold change vs veh, WIPF1 / RFU, LARP1B / Fold change vs veh, LARP1B / RFU, RASA1 / Fold change vs veh, RASA1 / RFU, RB1 / Fold change vs veh, RB1 / RFU, PPFIA1 / Fold change vs veh, PPFIA1 / RFU, MAT2A / Fold change vs veh, MAT2A / RFU, CCT5 / Fold change vs veh, CCT5 / RFU, WDR92 / Fold change vs veh, WDR92 / RFU, CUX1 / Fold change vs veh, CUX1 / RFU, TTC7A / Fold change vs veh, TTC7A / RFU, TMEM135 / Fold change vs veh, TMEM135 / RFU, DEPTOR / Fold change vs veh, DEPTOR / RFU, CPM / Fold change vs veh, CPM / RFU, DNAJB6 / Fold change vs veh, DNAJB6 / RFU, CACNA2D3 / Fold change vs veh, CACNA2D3 / RFU, DTX4 / Fold change vs veh, DTX4 / RFU, TFCP2 / Fold change vs veh, TFCP2 / RFU, GMCL1 /// GMCL1P1 / Fold change vs veh, GMCL1 /// GMCL1P1 / RFU, AEBP2 / Fold change vs veh, AEBP2 / RFU, SNHG1 /// SNORD22 /// SNORD25 /// SNORD26 /// SNORD27 /// SNORD28 /// SNORD29 /// SNORD31 / Fold change vs veh, SNHG1 /// SNORD22 /// SNORD25 /// SNORD26 /// SNORD27 /// SNORD28 /// SNORD29 /// SNORD31 / Fold change (Aza/veh), C12orf56 (ProbeSet 11735607_a_at) / Fold change (ACY-1035/veh), C12orf56 (ProbeSet 11735607_a_at) / Fold change (Aza/veh), FGFR1OP (ProbeSet 11751329_s_at) / Fold change (ACY-1035/veh), FGFR1OP (ProbeSet 11751329_s_at) / Fold change (Aza/veh), VPS36 (ProbeSet 11739960_a_at) / Fold change (ACY-1035/veh), VPS36 (ProbeSet 11739960_a_at) / RFU SYPL1 (11715823_x_at) / Fold change /veh SYPL1 (11715823_x_at) / RFU IGFBP7 (11715501_s_at) / Fold change /veh IGFBP7 (11715501_s_at) / RFU REEP3 (11722064_at) / Fold change /veh REEP3 (11722064_at) / RFU IGLL1 (11728026_x_at) / Fold change /veh IGLL1 (11728026_x_at): dose or concentration left out as unconfirmed. As to conditions: ProbeSet 11739106_a_at; LIST B.

The structures appear in SMILES notation.

`Nc1ccc(-c2cccs2)cc1NC(=O)c1ccc2c(c1)cc(C1CC1)n2CCN1CCOCC1` [ACY-1035]: the “Fold change vs veh, TMEM33” value was 0.87.
